Results taken from US9889146B2, “Benzoxaborole compounds and uses thereof” (priority 2012, dated 2018).
In brackets after ≈: the same amount, converted by molar mass. Read-outs that look alike come from different tables or passages of the source.

How the values were obtained:
Assay type in all cases: cell-based
[1] = system: E. coli ATCC 25922 wild type and mutants; assay: MIC, wild type and GSK2251052 resistant mutants; conditions: Escherichia coli
Experimental: (§1) Spontaneous Resistance Frequency was determined in vitro for GSK2251052 and the resistance mutants in E. coli ATCC 25922, K. pneumoniae ATCC 13883, and P. aeruginosa ATCC 27853 strains were characterized. GSK2251052 was prepared as described in U.S. Pat. No. 7,816,344 (the entire contents of which are hereby incorporated by reference herein). LB broth, Mueller Hinton II broth (adjusted), and Difco noble agar were obtained from Becton Dickinson (Cockeysville, Md., USA). M9 minimal broth containing 1×M9 salt, 0.5 μg/ML thiamine, 1 mM MgSO4, 0.1 mM CaCl2, 2% glucose, was obtained from Teknova (Hollister, Calif., USA). Antibacterial agents ciprofloxacin, ceftazidime, chloramphenicol, gentamycin, kanamycin, polymixin B, tobramycin and trimethoprim, and amino acids were obtained from Sigma Chemicals (St. Louis, Mo., USA). Strains were obtained from ATCC (Manassas, Va., USA).
(§2) Susceptibility tests were performed following the recommendations for aerobic bacteria (M7-A7) from the Clinical and Laboratories Standards Institute (CLSI).
(§3) Laboratory generated mutants resistant to GSK2251052 contain mutations in the editing domain of LeuRS. Six to ten GSK2251052 resistant colonies of E. coli ATCC 25922, K. pneumoniae ATCC 13883 and P. aeruginosa ATCC 27853 were selected for further analysis and their MICs to GSK2251052 were determined (Table 4-7).

[2] = system: K. pneumoniae ATCC 13883 wild type and mutants; assay: MIC, wild type and GSK2251052 resistant mutants; conditions: Klebsiella pneumoniae
Experimental: as §1, §2, §3

[3] = system: P. aeruginosa ATCC 27853 wild type and mutants; assay: MIC, wild type and GSK2251052 resistant mutants; conditions: Pseudomonas aeruginosa
Experimental: as §1, §2, §3

[4] = system: E. coli ATCC 25922, K. pneumoniae ATCC 13883 and P. aeruginosa ATCC 27853; assay: MIC, three strains and their mutants summarised; conditions: MIC in E. coli, P. aeruginosa and K. pneumoniae mutants versus wild-type
Experimental: as §1, §2, §3
GSK2251052 resistant mutants were not cross-resistant to commercial antibiotics.

E. coli ATCC 25922 = assay: Spontaneous frequency of resistance; conditions: 24 h
Experimental: as §1
(§4) Selection of resistance to GSK2251052 was attempted by spreading various amounts of bacteria onto MHBII noble agar plates containing 4×MIC (minimum inhibitory concentration) or 10×MIC of GSK2251052. Colonies were counted after 24 hours and 48 hours incubation at 37° C. The resistance of these colonies was confirmed by their ability to grow on plates containing GSK2251052 at either 4× or 10×MIC. Frequency of resistance was determined by dividing the number of resistant mutants by the total number of cells plated as determined by plating dilutions of the overnight culture on LB plates.

K. pneumoniae ATCC 13883 = assay: Spontaneous frequency of resistance; conditions: 24 h
Experimental: as §1, §4

P. aeruginosa ATCC 27853 = assay: Spontaneous frequency of resistance; conditions: 24 h
Experimental: as §1, §4

Enterobacteriaceae = assay: organism not typed; conditions: Enterobacteriaceae, 2029 isolates; read-out: MIC90
E. coli (WT) = assay: microbe, parasite or virus in culture; conditions: Escherichia coli; E. coli (WT), 214 isolates; read-out: MIC90
E. coli (ESBL) = assay: microbe, parasite or virus in culture; conditions: Escherichia coli
Klebsiella spp. (WT) = assay: microbe, parasite or virus in culture; conditions: Klebsiella spp. (WT), 159 isolates; read-out: MIC90
Klebsiella spp. (ESBL) = assay: microbe, parasite or virus in culture; conditions: Klebsiella
Klebsiella spp. (KPC) = assay: microbe, parasite or virus in culture; conditions: Klebsiella
[5] = system: Enterobacter aerogenes (WT); assay: microbe, parasite or virus in culture; conditions: Klebsiella aerogenes; Enterobacter aerogenes (WT), 199 isolates; read-out: MIC90
[6] = system: Enterobacter aerogenes (AmpC); assay: microbe, parasite or virus in culture; conditions: Klebsiella aerogenes
[7] = system: Enterobacter cloacae (WT); assay: microbe, parasite or virus in culture; conditions: 202 isolates, read-out: MIC90
[8] = system: Enterobacter cloacae (AmpC); assay: microbe, parasite or virus in culture; conditions: Enterobacter cloacae
[9] = system: Citrobacter freundii (AmpC); assay: microbe, parasite or virus in culture; conditions: Citrobacter freundii
[10] = system: Morganella morganii (AmpC); assay: microbe, parasite or virus in culture; conditions: Morganella morganii
Proteus mirabilis (WT) = assay: microbe, parasite or virus in culture; conditions: Proteus mirabilis (WT), 235 isolates; read-out: MIC90
Proteus vulgaris (WT) = assay: microbe, parasite or virus in culture; conditions: Proteus vulgaris (WT), 41 isolates; read-out: MIC90
Providencia spp.(all) = assay: microbe, parasite or virus in culture; conditions: Providencia spp.(all), 68 isolates; read-out: MIC90
S. marcescens (AmpC) = assay: microbe, parasite or virus in culture; conditions: Serratia marcescens
P. aeruginosa = assay: In vitro activity against P. aeruginosa clinical isolates; conditions: P. aeruginosa, 2,008 clinical isolates; GSK2251052 based on potential susceptible breakpoint of ≦4 μg/mL
Experimental: GSK2251052 was tested for activity against P. aeruginosa, and its activity was compared to other antibiotics of known activity. The results are shown below in Tables 2a and 2b. Of 2,008 clinical isolates tested (from 2009-2010 subjects, of which 40% were from North America) greater than 90% were susceptible to GSK2251052 based on a potential susceptible breakpoint of ≦4 μg/mL.

[11] = ATCC25922, E wt, read-out: MICs
[12] = ATCC25922, read-out: MICs, mutant E 101
[13] = ATCC25922, read-out: MICs, mutant E 102
[14] = ATCC25922, read-out: MICs, mutant E 107
[15] = ATCC13883, K wt., read-out: MICs
[16] = ATCC13883, read-out: MICs, mutant K 104
[17] = ATCC13883, read-out: MICs, mutant K 105
[18] = ATCC13883, read-out: MICs, mutant K 107
[19] = ATCC13883, read-out: MICs, mutant K 108
[20] = ATCC13883, read-out: MICs, mutant K 110
[21] = ATCC27853, P wt., read-out: MICs
[22] = ATCC27853, read-out: MICs, mutant P 101
[23] = ATCC27853, read-out: MICs, mutant P106
[24] = ATCC27853, read-out: MICs, mutant P108

Structure (SMILES): COc1cc(Cc2cnc(N)nc2N)cc(OC)c1OC [Trimethoprim]
- MIC [1, 11]: 0.5 µg/mL (≈ 1.72 µM)
- MIC [1, 12]: 1 µg/mL (≈ 3.44 µM)
- MIC [1, 13]: 0.5 µg/mL (≈ 1.72 µM)
- MIC [1, 14]: 1 µg/mL (≈ 3.44 µM)
- MIC [2, 15]: 1 µg/mL (≈ 3.44 µM)
- MIC [2, 16]: 1 µg/mL (≈ 3.44 µM)
- MIC [2, 17]: 1 µg/mL (≈ 3.44 µM)
- MIC [2, 18]: 1 µg/mL (≈ 3.44 µM)
- MIC [2, 19]: 1 µg/mL (≈ 3.44 µM)
- MIC [2, 20]: 1 µg/mL (≈ 3.44 µM)
- MIC [3, 21]: > 64 µg/mL
- MIC [3, 22]: > 64 µg/mL
- MIC [3, 23]: > 64 µg/mL
- MIC [3, 24]: > 64 µg/mL
- cross-resistance of GSK2251052 resistant mutants [4]: did not have any significant difference in MIC values than wild-type

Structure (SMILES): NC[C@H]1O[C@H](O[C@H]2[C@H](O)[C@@H](O[C@H]3O[C@H](CO)[C@@H](O)[C@H](N)[C@H]3O)[C@H](N)C[C@@H]2N)[C@H](N)C[C@@H]1O [Tobramycin]
- Frequency of Resistance (E. coli ATCC 25922; 4 X MIC): 1 × 10^−5
- Frequency of Resistance (E. coli ATCC 25922; 10 X MIC): 4 × 10^−6
- Frequency of Resistance (K. pneumoniae ATCC 13883; 4 X MIC): 1 × 10^−6
- Frequency of Resistance (K. pneumoniae ATCC 13883; 10 X MIC): 5 × 10^−8
- Frequency of Resistance (P. aeruginosa ATCC 27853; 4 X MIC): 1 × 10^−6
- Frequency of Resistance (P. aeruginosa ATCC 27853; 10 X MIC): 9 × 10^−8
- MIC [1, 11]: 1 µg/mL (≈ 2.14 µM)
- MIC [1, 12]: 1 µg/mL (≈ 2.14 µM)
- MIC [1, 13]: 2 µg/mL (≈ 4.28 µM)
- MIC [1, 14]: 1 µg/mL (≈ 2.14 µM)
- MIC [2, 15]: 0.5 µg/mL (≈ 1.07 µM)
- MIC [2, 16]: 0.5 µg/mL (≈ 1.07 µM)
- MIC [2, 17]: 0.5 µg/mL (≈ 1.07 µM)
- MIC [2, 18]: 0.5 µg/mL (≈ 1.07 µM)
- MIC [2, 19]: 0.5 µg/mL (≈ 1.07 µM)
- MIC [2, 20]: 0.5 µg/mL (≈ 1.07 µM)
- MIC [3, 21]: 0.5 µg/mL (≈ 1.07 µM)
- MIC [3, 22]: 0.5 µg/mL (≈ 1.07 µM)
- MIC [3, 23]: 0.5 µg/mL (≈ 1.07 µM)
- MIC [3, 24]: 0.5 µg/mL (≈ 1.07 µM)
- cross-resistance of GSK2251052 resistant mutants [4]: did not have any significant difference in MIC values than wild-type

Structure (SMILES): O=C(N[C@H](CO)[C@H](O)c1ccc([N+](=O)[O-])cc1)C(Cl)Cl [Chloramphenicol]
- MIC [1, 11]: 8 µg/mL (≈ 24.8 µM)
- MIC [1, 12]: 8 µg/mL (≈ 24.8 µM)
- MIC [1, 13]: 8 µg/mL (≈ 24.8 µM)
- MIC [1, 14]: 8 µg/mL (≈ 24.8 µM)
- MIC [2, 15]: 4 µg/mL (≈ 12.4 µM)
- MIC [2, 16]: 8 µg/mL (≈ 24.8 µM)
- MIC [2, 17]: 8 µg/mL (≈ 24.8 µM)
- MIC [2, 18]: 8 µg/mL (≈ 24.8 µM)
- MIC [2, 19]: 8 µg/mL (≈ 24.8 µM)
- MIC [2, 20]: 8 µg/mL (≈ 24.8 µM)
- MIC [3, 21]: > 64 µg/mL
- MIC [3, 22]: > 64 µg/mL
- MIC [3, 23]: > 64 µg/mL
- MIC [3, 24]: > 64 µg/mL
- cross-resistance of GSK2251052 resistant mutants [4]: did not have any significant difference in MIC values than wild-type

Structure (SMILES): C[C@H]1COc2c(N3CCN(C)CC3)c(F)cc3c(=O)c(C(=O)O)cn1c23 [Levofloxacin]
- MIC90 (Enterobacteriaceae): 16 µg/mL (≈ 44.3 µM)
- MIC90 (E. coli (WT)): 16 µg/mL (≈ 44.3 µM)
- MIC90 (E. coli (ESBL)): > 16 µg/mL
- MIC90 (Klebsiella spp. (WT)): 4 µg/mL (≈ 11.1 µM)
- MIC90 (Klebsiella spp. (ESBL)): > 16 µg/mL
- MIC90 (Klebsiella spp. (KPC)): > 16 µg/mL
- MIC90 [5]: ≤ 0.5 µg/mL
- MIC90 [6]: 16 µg/mL (≈ 44.3 µM)
- MIC90 [7]: ≤ 0.5 µg/mL
- MIC90 [8]: 16 µg/mL (≈ 44.3 µM)
- MIC90 [9]: 8 µg/mL (≈ 22.1 µM)
- MIC90 [10]: > 16 µg/mL
- MIC90 (Proteus mirabilis (WT)): 8 µg/mL (≈ 22.1 µM)
- MIC90 (Proteus vulgaris (WT)): ≤ 5 µg/mL
- MIC90 (Providencia spp.(all)): > 16 µg/mL
- MIC90 (S. marcescens (AmpC)): 4 µg/mL (≈ 11.1 µM)
- % susceptible (P. aeruginosa): 63.7%
- Frequency of Resistance (E. coli ATCC 25922; 4 X MIC): 2 × 10^−8
- Frequency of Resistance (E. coli ATCC 25922; 10 X MIC): <5 × 10^−9
- Frequency of Resistance (K. pneumoniae ATCC 13883; 4 X MIC): 2 × 10^−7
- Frequency of Resistance (K. pneumoniae ATCC 13883; 10 X MIC): <3 × 10^−9
- Frequency of Resistance (P. aeruginosa ATCC 27853; 4 X MIC): 1 × 10^−7
- Frequency of Resistance (P. aeruginosa ATCC 27853; 10 X MIC): <1 × 10^−9

Structure (SMILES): O=C(O)c1cn(C2CC2)c2cc(N3CCNCC3)c(F)cc2c1=O [Ciprofloxacin]
- Frequency of Resistance (E. coli ATCC 25922; 4 X MIC): 2 × 10^−8
- Frequency of Resistance (E. coli ATCC 25922; 10 X MIC): <4 × 10^−9
- Frequency of Resistance (K. pneumoniae ATCC 13883; 4 X MIC): 5 × 10^−7
- Frequency of Resistance (K. pneumoniae ATCC 13883; 10 X MIC): <5 × 10^−9
- Frequency of Resistance (P. aeruginosa ATCC 27853; 4 X MIC): 1 × 10^−8
- Frequency of Resistance (P. aeruginosa ATCC 27853; 10 X MIC): <1 × 10^−9
- MIC [1, 11]: 0.008 µg/mL (≈ 0.0241 µM)
- MIC [1, 12]: 0.008 µg/mL (≈ 0.0241 µM)
- MIC [1, 13]: 0.008 µg/mL (≈ 0.0241 µM)
- MIC [1, 14]: 0.015 µg/mL (≈ 0.0453 µM)
- MIC [2, 15]: 0.125 µg/mL (≈ 0.377 µM)
- MIC [2, 16]: 0.03 µg/mL (≈ 0.0905 µM)
- MIC [2, 17]: 0.06 µg/mL (≈ 0.181 µM)
- MIC [2, 18]: 0.06 µg/mL (≈ 0.181 µM)
- MIC [2, 19]: 0.03 µg/mL (≈ 0.0905 µM)
- MIC [2, 20]: 0.03 µg/mL (≈ 0.0905 µM)
- MIC [3, 21]: 0.5 µg/mL (≈ 1.51 µM)
- MIC [3, 22]: 1 µg/mL (≈ 3.02 µM)
- MIC [3, 23]: 1 µg/mL (≈ 3.02 µM)
- MIC [3, 24]: 0.5 µg/mL (≈ 1.51 µM)
- cross-resistance of GSK2251052 resistant mutants [4]: did not have any significant difference in MIC values than wild-type
